Assay results published in the supplement of paper PMC13380429.

Experiments:
Settings in all cases: 72 h
Caco-2 [1] = test: cell viability relative to DMSO; higher = less toxic
Calu-3 [2] = test: as above
HepG2 [3] = test: as above
Vero E6 [4] = test: as above
Caco-2 [5] = test: relative viability EC50 (midpoint between 100% and the lowest measured viability); higher = less toxic
Calu-3 [6] = test: as above
HepG2 [7] = test: as above
Vero E6 [8] = test: as above
Caco-2 [9] = test: drug sensitivity score (DSS) for viability; higher = more toxic; extreme values may be limits of the assay
Calu-3 [10] = test: as above
HepG2 [11] = test: as above
Vero E6 [12] = test: as above
U2OS [13] = test: cell viability relative to DMSO; higher = less toxic
U2OS [14] = test: relative viability EC50 (midpoint between 100% and the lowest measured viability); higher = less toxic
U2OS [15] = test: drug sensitivity score (DSS) for viability; higher = more toxic; extreme values may be limits of the assay

Row | Structure (SMILES) | cell viability (Caco-2 [1]; 1 nM) | cell viability (Caco-2 [1]; 10 nM) | cell viability (Caco-2 [1]; 100 nM) | cell viability (Caco-2 [1]; 1000 nM) | cell viability (Caco-2 [1]; 10000 nM) | cell viability (Calu-3 [2]; 1 nM) | cell viability (Calu-3 [2]; 10 nM) | cell viability (Calu-3 [2]; 100 nM) | cell viability (Calu-3 [2]; 1000 nM) | cell viability (Calu-3 [2]; 10000 nM) | cell viability (HepG2 [3]; 1 nM) | cell viability (HepG2 [3]; 10 nM) | cell viability (HepG2 [3]; 100 nM) | cell viability (HepG2 [3]; 1000 nM) | cell viability (HepG2 [3]; 10000 nM) | cell viability (Vero E6 [4]; 1 nM) | cell viability (Vero E6 [4]; 10 nM) | cell viability (Vero E6 [4]; 100 nM) | cell viability (Vero E6 [4]; 1000 nM) | cell viability (Vero E6 [4]; 10000 nM) | relative viability EC50 (Caco-2 [5]) | relative viability EC50 (Calu-3 [6]) | relative viability EC50 (HepG2 [7]) | relative viability EC50 (Vero E6 [8]) | drug sensitivity score (Caco-2 [9]) | drug sensitivity score (Calu-3 [10]) | drug sensitivity score (HepG2 [11]) | drug sensitivity score (Vero E6 [12]) | cell viability (U2OS [13]; 1 nM) | cell viability (U2OS [13]; 10 nM) | cell viability (U2OS [13]; 100 nM) | cell viability (U2OS [13]; 1000 nM) | cell viability (U2OS [13]; 10000 nM) | relative viability EC50 (U2OS [14]) | drug sensitivity score (U2OS [15])
1 | CCCCC1=NC2(CCCC2)C(=O)N1Cc1ccc(-c2ccccc2-c2nnn[nH]2)cc1 [irbesartan] | 109% | 97.1% | 106% | 104% | 109% | 100% | 97.1% | 100% | 101% | 108% | 107% | 104% | 102% | 99.9% | 106% | 100% | 101% | 99.7% | 93.6% | 94.6% | > 10 µM | > 10 µM | > 10 µM | > 10 µM | 0 | 0 | 0 | 0 | – | – | – | – | – | – | –
2 | Cc1cc2sc(NC(=O)Cc3ccccc3)nc2cc1Cl [LH846] | 95.8% | 93.3% | 101% | 110% | 101% | 115% | 105% | 110% | 100% | 92.7% | 98.7% | 119% | 103% | 102% | 108% | 96.5% | 99.2% | 98% | 93.5% | 107% | > 10 µM | > 10 µM | > 10 µM | > 10 µM | 0 | 0 | 0 | 0 | – | – | – | – | – | – | –
3 | Cc1ccc(-c2csc(NC(=O)c3ccccc3)n2)c(C)c1 [INH1] | 97.2% | 104% | 96.1% | 91.5% | 85.8% | 96.9% | 102% | 101% | 107% | 98.3% | 102% | 104% | 98.8% | 104% | 58.7% | 102% | 96.8% | 98.4% | 97.5% | 91.1% | > 10 µM | > 10 µM | – | > 10 µM | 0.4 | 0 | 1.8 | 0 | 94.7% | 101% | 95.3% | 96.3% | 96.6% | > 10 µM | 0
4 | Cc1cc(C(=O)NOCCO)c(Nc2ccc(I)cc2F)n(C)c1=O [AZD8330] | 86.1% | 83.3% | 70% | 62.1% | 66.3% | 78.8% | 69.5% | 44% | 29.3% | 25.7% | 78.2% | 34% | 24% | 20.1% | 18.4% | 89.5% | 72.1% | 52% | 47.7% | 49.2% | – | 0.0118 µM | 0.0026 µM | 0.0072 µM | 12 | 24.3 | 35 | 19.2 | 93.1% | 94% | 86.2% | 37.3% | 28.3% | 0.265 µM | 13.3
5 | CC(=O)NC1=NN(C(C)=O)[C@](C)(c2ccccc2)S1 [K-858] | 106% | 102% | 91.3% | 102% | 71% | 108% | 93% | 96.3% | 101% | 91.5% | 98.8% | 101% | 98.7% | 106% | 39.2% | 103% | 103% | 99% | 96.2% | 42.2% | – | > 10 µM | 3.65 µM | 2.63 µM | 1.1 | 0 | 2.9 | 3.7 | 97% | 96.5% | 97.6% | 98.3% | 63.9% | – | 2
6 | CC(=O)OCC(=O)[C@@]1(O)CC[C@H]2[C@@H]3CCC4=CC(=O)C=C[C@]4(C)[C@@]3(Cl)[C@@H](Cl)C[C@@]21C [dichlorisone-acetate] | 105% | 103% | 99.7% | 105% | 110% | 98.9% | 107% | 100% | 89.2% | 102% | 96.4% | 94.5% | 99% | 99.3% | 92.4% | 105% | 102% | 102% | 98.7% | 105% | > 10 µM | > 10 µM | > 10 µM | > 10 µM | 0 | 0 | 0 | 0 | – | – | – | – | – | – | –
7 | CCCN(CCC)C(=O)C(CCC(=O)O)NC(=O)c1ccccc1 (configuration not stated) [proglumide] | 102% | 105% | 95.7% | 104% | 102% | 100% | 113% | 104% | 89.9% | 96.2% | 98% | 104% | 107% | 109% | 106% | 104% | 100% | 98.8% | 97.8% | 107% | > 10 µM | > 10 µM | > 10 µM | > 10 µM | 0 | 0 | 0 | 0 | – | – | – | – | – | – | –
8 | CC(=O)N1CCN(CCOc2ccc(C3CCN(C4=Nn5c(nnc5C(F)(F)F)CC4)CC3)cc2)CC1 [AZD3514] | 90.2% | 99.3% | 93.7% | 98.3% | 75.9% | 98.2% | 96.1% | 89.4% | 107% | 91% | 88.9% | 95.9% | 82.4% | 91.4% | 43.2% | 104% | 98.3% | 92.2% | 90.7% | 59.1% | > 10 µM | > 10 µM | 1.97 µM | – | 1.1 | 0 | 4.5 | 3.4 | 99.8% | 94% | 99.4% | 94.9% | 69.9% | – | 2.1
9 | C[C@]1(c2nc3c(C(N)=O)cccc3[nH]2)CCCN1 [veliparib] | – | – | – | – | – | 105% | 100% | 100% | 111% | 92.1% | 105% | 107% | 106% | 96.1% | 101% | – | – | – | – | – | – | > 10 µM | > 10 µM | – | – | 0 | 0 | – | 96.7% | 104% | 96.8% | 106% | 96.6% | > 10 µM | 0
10 | CCCCOc1ccc(-c2cncc(C(=O)NCc3cccnc3N3CCOCC3)c2)cc1Cl | 92.8% | 104% | 94.7% | 102% | 74.8% | 107% | 96.4% | 92.9% | 104% | 90.4% | 99.7% | 93% | 113% | 106% | 106% | 102% | 102% | 100% | 96.5% | 94.4% | – | > 10 µM | > 10 µM | > 10 µM | 0.8 | 0 | 0 | 0 | 104% | 103% | 99.5% | 106% | 92.8% | > 10 µM | 0
11 | C[C@@H](N[C@H]1CCCC[C@@H]1NC(=O)c1ccc(Cl)cc1)c1cccc2ccccc12 [Calhex-231] | 104% | 91.7% | 91.6% | 102% | 92.9% | 91.9% | 108% | 95.9% | 109% | 85.8% | 97.9% | 101% | 95.7% | 97.9% | 68.6% | 103% | 104% | 102% | 98.9% | 93.4% | > 10 µM | > 10 µM | – | > 10 µM | 0 | 0.1 | 1.7 | 0 | 98.7% | 96.2% | 99.8% | 94.1% | 87.3% | > 10 µM | 0.3
12 | CC(C)c1nnc(-c2ccc(-c3ccccc3)nc2)n1-c1cccc2nonc12 [ASP-2535] | 104% | 99% | 96.4% | 95.5% | 96.2% | 103% | 92.2% | 103% | 93.3% | 103% | 104% | 106% | 107% | 107% | 88.7% | 98.8% | 102% | 97.8% | 102% | 92.9% | > 10 µM | > 10 µM | > 10 µM | > 10 µM | 0 | 0 | 0 | 0 | – | – | – | – | – | – | –
13 | c1ccc(CN(CC2=NCCN2)c2ccccc2)cc1 [antazoline] | 103% | 84.4% | 92.1% | 84% | 70.7% | 90.2% | 105% | 98.3% | 104% | 91.7% | 102% | 91.8% | 90.6% | 96.7% | 103% | 99.1% | 102% | 105% | 90.4% | 91.7% | – | > 10 µM | > 10 µM | > 10 µM | 3.4 | 0 | 0 | 0 | 96.5% | 101% | 93.9% | 95% | 90.6% | > 10 µM | 0
14 | CCCCCCCCCCCCCCCC(=O)OC[C@H](COP(=O)([O-])OCC[N+](C)(C)C)OC(=O)CCCCCCCCCCCCCCC [colfosceril-palmitate] | 115% | 113% | 101% | 95.7% | 71.7% | 100% | 103% | 98.1% | 99.2% | 86.9% | 97.5% | 108% | 93.3% | 101% | 99.7% | 102% | 97.3% | 96.7% | 95.6% | 95.6% | – | > 10 µM | > 10 µM | > 10 µM | 1.9 | 0.2 | 0 | 0 | 102% | 103% | 94.8% | 101% | 95.9% | > 10 µM | 0
15 | c1ccc2c(c1)CCCC2C1=NCCN1 (configuration not stated) [tetrahydrozoline] | 105% | 101% | 99% | 92.5% | 106% | 109% | 97.9% | 112% | 110% | 99.5% | 93% | 104% | 91.2% | 100% | 104% | 68.7% | 103% | 61.2% | 108% | 68.4% | > 10 µM | > 10 µM | > 10 µM | – | 0 | 0 | 0 | 0.7 | – | – | – | – | – | – | –
16 | O=C1CCc2ccc(OCCCCN3CCN(c4cccc(Cl)c4Cl)CC3)cc2N1 [aripiprazole] | 112% | 78% | 94.6% | 90.5% | 70.8% | 98.5% | 98.5% | 104% | 91.9% | 83.3% | 109% | 105% | 98.6% | 100% | 77.5% | 94.1% | 97.6% | 93.7% | 96.3% | 88.2% | – | > 10 µM | > 10 µM | > 10 µM | 2.3 | 1.1 | 0.8 | 0 | 102% | 103% | 103% | 103% | 89.2% | > 10 µM | 0
